Results taken from US20260374836A1, “PALMITOYLATED ANALOGUE OF PROLACTIN-RELEASING PEPTIDE FOR INTRANASAL ADMINISTRATION” (USTAV ORGANICKE CHEMIE A BIOCHEMIE AKADEMIE VED CR, V. V. I., priority 2022, published 2026).
Entries after “also recorded” stand apart in the source; their conditions may differ. Numbered stars: 1 amine (or outer) side, 2 acyl side, 3 side chain; on linkers, the order of the positions; unused ones are H or OH. Side chains are listed from the residue outwards. Ends that are not written are not given here. Peptide text beside a SMILES is read from it. * marks the point of attachment. γGlu = O=C(O)[C@H](CCC(=O)[*:2])N[*:1]; Palmitoyl = CCCCCCCCCCCCCCCC(=O)*

Experiments:
[1] = background statement; cited from earlier work
fasted C57BL/6 mice = assay: food intake test in fasted mice after SC or IN administration; type: in vivo, mouse (C57BL/6); conditions: for food intake: fasted mice
Description: Male mice of strain C57BL/6 (Charles River, Germany) were kept in the accredited animal facility of the Institute of Organic Chemistry and Biochemistry of the Academy of Sciences of the Czech Republic (CAS), Prague in the facility of the Academy of Sciences in Krč at a temperature of 22±2 °C and had free access to food and tap water. The rhythm of light/dark was 12/12 h (light onset 6:00). The animals were treated according to the Act on the Protection of Animals against Cruelty (Czech Act No. 246/1992 Coll.). Males were fed a standard Ssniff R/M-H diet (Ssniff Spezialdiäten GmbH, Soest, Germany). 16 h before the application of palm^11-PrRP31, the mice were fasted with free access to water. Application of saline and palm^11-PrRP31 after dissolution in saline was performed by SC at 5 mg/kg (volume 0.15 ml/mouse) or IN using a fine-tip pipette at 0.01 and 0.1 mg/kg (5 μl/mouse). Twenty minutes after peptide injection, mice were given pre-weighed food. The food was then weighed every 30 minutes for 7 hours. The experiment was performed at least twice for each dose of palm^11-PrRP31 and one group of mice consisted of at least 6 mice. The results are expressed as a percentage of food intake compared to the saline-injected control group.
Graph-Pad Prism Software (San Diego, CA, USA), one-way ANOVA followed by Dunnett's post-hoc test was used for statistical evaluation. Differences in food intake between individuals injected with saline (control) and those injected with palm^11-PrRP31 were considered statistically significant at P<0.05.

obese WKY rats = assay: change in weight after chronic (30 days) IP or IN administration to obese WKY rats on high-fat diet; type: in vivo, rat (Wistar Kyoto; conditions: for weight change: obese WKY rats on HFD, 30 days
Description: (§1) Male WKY rats (Charles River, Germany) were kept in the accredited animal facility of the Institute of Physiology of the CAS, v.v.i., Prague, in the facility of the Academy of Sciences in Krč at a temperature of 22±2 °C and had free access to food and tap water. The light/dark rhythm was 12/12 hours (light onset 4:00). The animals were treated according to the Act on the Protection of Animals against Cruelty (Act No. 246/1992 Coll.). Males were fed a high-fat diet D12492 (Research Diets, USA) containing 60% fat, 20% protein and 20% carbohydrate. From 8 weeks of age, they were fed this diet for 4 months. They were then divided into groups of 5 animals (IP administration of saline or palm^11-PrRP31 in saline at 5 mg/kg) or 8 animals (IN administration of saline or palm^11-PrRP31 in saline at 0.3 mg/kg). The compound was administered IP or IN once daily 1 hour before lights out for 30 days. Throughout the period, the weight of the rats was monitored 3 times a week and at the end, glycated hemoglobin was measured in blood drawn from the tail. Glycated hemoglobin (HbAlc) was determined using the Tina-quant HbAlc Gen. 3 kit (Roche, Mannheim, Germany).
(§2) Graph-Pad Prism Software (San Diego, CA, USA), one-way ANOVA followed by Dunnett's post-hoc test was used for statistical evaluation. Differences in food intake between individuals injected with saline and those injected with palm^11-PrRP31 were considered statistically significant at P<0.05.

[2] = system: glycated hemoglobin (HbAlc); assay: glycated hemoglobin (HbA1c) in obese WKY rats after 30 days of treatment; type: in vivo, rat (Wistar Kyoto; conditions: obese WKY rats on HFD
Description: as §1, §2

obese C57BL/6 mice = assay: change in weight after chronic (14 days) SC or IN administration to obese C57BL/6 mice on high-fat diet; type: in vivo, mouse (C57BL/6); conditions: for body weight change: obese C57BL/6 mice on HFD
Description: (§3) Male C57BL/6 mice (Charles River, Germany) were kept in the accredited animal facility of the Institute of Organic Chemistry and Biochemistry of the CAS, Prague, in the facility of the Academy of Sciences in Krč at a temperature of 22±2 °C and had free access to food and tap water. The light/dark rhythm was 12/12 hours (light onset 4:00). The animals were treated according to the Act on the Protection of Animals against Cruelty (Act No. 246/1992 Coll.). Males were fed at-house-made high-fat diet containing 60% fat (lard), 20% protein and 20% carbohydrate. From 8 weeks of age, they were fed this diet for 4 months. They were then divided into groups of 6 animals (SC administration of saline or palm^11-PrRP31 in saline at 5 mg/kg and IN administration of saline or palm^11-PrRP31 in saline at 0.3 mg/kg). The compound was administered SC or IN twice daily 1 hour before lights out for 14 days. Throughout the period, the weight of the mice was monitored 3 times a week.
as §2

blood glucose [3] = assay: blood glucose after repeated administration to obese WKY rats on high-fat diet; type: in vivo, rat (Wistar Kyoto; conditions: obese WKY rats on HFD, IN 0.3 mg/kg repeated, same extent as IP 5 mg/kg
Description: as §1

blood glucose [4] = assay: blood glucose after repeated administration to obese C57BL/6N mice on high-fat diet; type: in vivo, mouse (C57BL/6N); conditions: obese C57BL/6N mice on HFD, IN 0.3 mg/kg repeated
Description: as §3, with “They were then divided into groups of 6 animals (SC administration of saline or palm^11-PrRP31 in saline at 5 mg/kg and IN administration of saline or palm^11-PrRP31 in saline at 0.3 mg/kg).” left out

GPR10 = conditions: previous studies (EP 3094643); cited from earlier work
[5] = system: mouse and rat models of high-fat diet-induced obesity; conditions: chronic peripheral administration; cited from earlier work
rats = conditions: intracerebroventricular (ICV); cited from earlier work
[6] = IN 0.3 mg/kg once daily, listed as Palm^11-PrRP31

CCCCCCCCCCC[C@@H](C[C@@H]1OC(=O)[C@H]1CCCCCC)OC(=O)[C@H](CC(C)C)NC=O [Orlistat]
side effects [1]: diarrhea

CC(C)CC(N(C)C)C1(c2ccc(Cl)cc2)CCC1 (stereo not drawn) [Sibutramine]
side effects [1]: increase the risk of heart disease

CCCCCCCCCCCCCCCC(=O)N[C@@H](CCC(=O)NCCCC[C@H](NC(=O)[C@@H](NC(=O)[C@H](CCC(=O)O)NC(=O)[C@H](CCSC)NC(=O)[C@H](CO)NC(=O)[C@H](Cc1c[nH]cn1)NC(=O)[C@H](CCCNC(=N)N)NC(=O)[C@H](Cc1c[nH]cn1)NC(=O)[C@@H](NC(=O)[C@H](CCCNC(=N)N)NC(=O)[C@@H](N)CO)[C@@H](C)O)[C@@H](C)CC)C(=O)N[C@H](C(=O)N1CCC[C@H]1C(=O)N[C@@H](CC(=O)O)C(=O)N[C@H](C(=O)N[C@@H](CC(N)=O)C(=O)N1CCC[C@H]1C(=O)N[C@@H](C)C(=O)N[C@@H](Cc1c[nH]c2ccccc12)C(=O)N[C@@H](Cc1ccc(O)cc1)C(=O)N[C@@H](C)C(=O)N[C@@H](CO)C(=O)N[C@@H](CCCNC(=N)N)C(=O)NCC(=O)N[C@H](C(=O)N[C@@H](CCCNC(=N)N)C(=O)N1CCC[C@H]1C(=O)N[C@H](C(=O)NCC(=O)N[C@@H](CCCNC(=N)N)C(=O)N[C@@H](Cc1ccccc1)C(N)=O)C(C)C)[C@@H](C)CC)[C@@H](C)CC)[C@@H](C)O)C(=O)O [palm^11-PrRP31] (H-SRTHRHSMEIK([γGlu-Palmitoyl])TPDINPAWYASRGIRPVGRF-NH2)
significance P vs. saline, cumulative food intake (fasted C57BL/6 mice; FIG. 1, SC 5 mg/kg, IN 0.01 and 0.1 mg/kg, ANOVA, Dunnett's): < 0.001 | IN dose relative to SC dose for the same reduction in food intake, in words (fasted C57BL/6 mice; IN 0.01 and 0.1 mg/kg vs. SC 5 mg/kg): an order of magnitude lower dose | IN dose lower than SC dose to achieve the same effect on food intake (fasted C57BL/6 mice; IN vs. SC, feeding test in mice): 1-2 orders of magnitude | food intake (fasted C57BL/6 mice; IN 0.01 mg/kg, vs. saline / SC 5 mg/kg): same reduction in food intake; also recorded: significantly reduced food intake | food intake (fasted C57BL/6 mice; IN 0.01 mg/kg, vs. saline / SC 5 mg/kg, listed as Palm^11-PrRP31): reduced food intake in fasted mice very significantly and over a long period of time, to the same extent | food intake (fasted C57BL/6 mice; IN 0.1 mg/kg, vs. saline / SC 5 mg/kg): same reduction in food intake; also recorded: significantly reduced food intake | food intake (fasted C57BL/6 mice; IN 0.1 mg/kg, vs. saline / SC 5 mg/kg, listed as Palm^11-PrRP31): reduced food intake in fasted mice very significantly and over a long period of time, to the same extent | food intake (fasted C57BL/6 mice; SC 5 mg/kg, vs. saline, 5 mg/kg): highly significant (P<0.001) reduction in food intake; also recorded: significantly reduced food intake | food intake (fasted C57BL/6 mice; SC 5 mg/kg, vs. saline, listed as Palm^11-PrRP31, 5 mg/kg): reduced food intake in fasted mice very significantly and over a long period of time | significance P vs. saline, change in weight (obese WKY rats; FIG. 2, IN 0.3 mg/kg, IP 5 mg/kg, ANOVA, Dunnett's): < 0.001 | IN dose lower than IP dose for the same weight reduction (obese WKY rats; IN 0.3 mg/kg vs. IP dose, rats): 16 times lower | weight change (obese WKY rats; IN 0.3 mg/kg once daily): reduced weight; also recorded: highly significant weight reduction | weight change (obese WKY rats; [6]): reduced the weight of rats after chronic administration to the same extent | weight change (obese WKY rats; IP 5 mg/kg once daily, 5 mg/kg): highly significant weight reduction | weight change (obese WKY rats; IP 5 mg/kg once daily, listed as Palm^11-PrRP31, 5 mg/kg): reduced the weight of rats after chronic administration to the same extent | glycated hemoglobin (HbAlc) ([2]; IN 0.3 mg/kg once daily): significant decrease in blood glycated hemoglobin | glycated hemoglobin (HbAlc) [2, 6]: significantly reduced glycated hemoglobin | glycated hemoglobin (HbAlc) ([2]; IP 5 mg/kg once daily): significantly reduced glycated hemoglobin | significance P vs. saline, change in weight (obese C57BL/6 mice; FIG. 4, IN 0.3 mg/kg, SC 5 mg/kg twice daily, ANOVA, Dunnett's): < 0.001 | body weight change (obese C57BL/6 mice; IN 0.3 mg/kg (twice daily, 14 days)): reduced weight; also recorded: highly significant weight reduction | body weight change (obese C57BL/6 mice; IN 0.3 mg/kg (twice daily, 14 days), listed as Palm^11-PrRP31): highly significant weight reduction | body weight change (obese C57BL/6 mice; SC 5 mg/kg twice daily, 14 days): highly significant weight reduction | blood glucose (blood glucose [3]): decreased blood glucose | blood glucose (blood glucose [4]): decreased blood glucose | potency among analogues of PrRP31 (GPR10): most potent analogue of the natural peptide PrRP31 | anti-obesity and anti-diabetic effects [5]: anti-obesity and anti-diabetic effects

PrRP31: natural prolactin-releasing peptide form containing 31 amino acids (SRTHRHSMEIRTPDINPAWYASRGIRPVGRF; ends and bridges not checked; UniProt P81277 23-53, looked up)
food intake (rats): significant short-term reduction in food intake | weight (rats): weight loss
